Laboratory results: patent US20110182916A1, “Use of Agonists of Integrin Alpha 5 for Inducing the Osteogenic Differentiation of Mesenchymal Stem Cells” (priority 2008, published 2011)
Where no end group is shown, it is not given here.

Assays:
[1] = system: clonal F/STRO1+A cells; experiment: ALP activity by staining in clonal cells; format: cell-based, human; details: coating with 100 μg/ml CRRETAWAC
Source text: F/STRO1^+A cells were derived from human fetal bone marrow stroma, selected for Stro1 antigen expression, immortalized using the large T SV40 and subsequently subcloned (OYAJOBI et al., J Bone Miner Res, 14, 351-61, 1999). This clonal human bone marrow stromal cell line express mRNA markers or protein of the osteoblast lineage (Runx2, OC, ALP, type 1 collagen), of the chondrocyte lineage (aggrecan, types 2, 9 and 10 collagen), and of the adipocyte lineage (PPARgamma2, C/EBPalpha, aP2, G3PDH, LPL, leptin) under basal conditions (AHDJOUDJ et al., J Cell Biochem, 81, 23-38, 2001).
The activity of alkaline phosphatase, an early marker of osteoblast differentiation, was determined by a colorimetric assay as previously described (FROMIGUE et al., J Cell Biochem, 104, 620-8, 2008). ALP staining was performed using Sigma FAST kit according to the manufacturer's recommendations (Sigma). Cells were fixed in 75% ethanol, rinsed in PBS and incubated with the substrate buffer at 37° C.
Legend: The synthetic cyclic peptide CRRETAWAC promotes osteoblast marker genes expression in hMSCs. A) Human MSCs were treated with CRRETAWAC at the dose of 100 μg/ml for 24 h, RNAs were collected and osteoblast markers were determined by qRT-PCR analysis. Results, after correction to 18S content, are expressed as mean±SD of treated over control ratio. […] Infection with LV-ITGA5 is shown for comparison.

[2] = system: hMSCs; experiment: Osteoblast marker mRNA (Runx2, ALP, Col1A1) by quantitative RT-PCR; format: cell-based; details: CRRETAWAC 100 μg/ml, 24 h, human MSCs
Method: The expression of mRNA markers of the osteoblast lineage (Runx2, ALP, type 1 collagen) was evaluated by quantitative RT-PCR. Total RNAs were isolated using Trizol reagent (Laboratoires Eurobio, France) according to the manufacturer's instructions. Three μg of total RNA from each sample were reverse transcribed using MMLV reverse transcriptase and oligodT primers, at 37° C. for 90 min. The relative mRNA levels were evaluated by quantitative PCR using LightCycler Instrument (Roche Applied Science, Indianapolis Ind., USA) and SYBR Green PCR kit (ABGen, Courtabceuf, France). Triplicate reactions were carried out for each sample. Signal was normalized to 18S as internal control.

[3] = system: ITGA5 in hMSCs; experiment: ITGA5 protein level by Western blot; format: cell-based, human; details: dexamethasone 10^-7 M
Method: For Western blot analysis, cells lysates were prepared as previously described (FROMIGUE et al. Cell Death Differ. 13, 1845-56, 2006). Briefly, proteins (30 μg) were resolved on 4-12% SDS-PAGE and electrotransfered onto […] membranes (Millipore Corporation, Bedford, USA). Filters were incubated at RT for 2 h in 50 mM Tris/HCl (pH 7.4), 150 mM NaCl, 0.1% (v/v) Tween-20, 0.5% (w/v) bovine serum albumin (TBST/BSA), then overnight at 4° C. on a shaker with specific primary antibodies diluted at 1/1000 in TBST/BSA: monoclonal antibody against the housekeeping gene GAPDH (Abeam Cambridge, UK), and rabbit polyclonal antibody directed against ITGA5 was Santa Cruz Biotechnology (Santa Cruz, Calif., USA). Membranes were washed twice with TBST and incubated for 2 hours with appropriate HRP-conjugated secondary antibody (1/20,000 in TBST/BSA). After final washes, the signals were visualized with enhanced chemiluminescence western blotting detection reagent (ECL, Amersham Biosciences, Piscataway, N.J., USA) and autoradiographic film (X-OMAT-AR, Eastman Kodak Company, Rochester, N.Y., USA). Densitometric analysis using ImageQuant software was performed following digital scanning (Agfa).

[4] = system: ITGA5 in primary hMSCs; experiment: ITGA5 mRNA expression by quantitative RT-PCR; format: cell-based, human; details: dexamethasone 10^-7 M, day 1 and 3, primary hMSCs
[5] = system: LV-ITGA5-infected hMSCs; format: cell-based, human
Method: To this goal, proteins collected from hMSCs infected with LV-ITGA5 were analysed by western blot analysis.
Legend: Osteoblast differentiation by ITGA5 involves ERK1/2 signalling.

## CRRETAWAC (also: cyclic)
[1]
  ALP activity (staining): increased
[2]
  expression of osteoblast markers (mRNA): greatly increased

## C[C@@H]1C[C@H]2[C@@H]3CCC4=CC(=O)C=C[C@]4(C)[C@@]3(F)[C@@H](O)C[C@]2(C)[C@@]1(O)C(=O)CO [dexamethasone]
[3]
  increase of ITGA5 protein levels, treated over control: about 1.5 fold
[4]
  increase of ITGA5 expression (mRNA), treated over control: 2-3 fold

## N#CC(=C(/N)Sc1ccccc1N)/C(C#N)=C(\N)Sc1ccccc1N [U0126]
[5]
  increased expression of ALP induced by ITGA5 overexpression: blunted
  increased expression of Col1A1 induced by ITGA5 overexpression: blunted
  increased expression of Runx2 induced by ITGA5 overexpression: blunted
